# Test results taken from patent EP0229128B1, “DERIVATIVES OF GLYCERO-3(2)-PHOSPHO-L-SERINE AND PHARMACEUTICAL PREPARATIONS CONTAINING THEM” (CL PHARMA AKTIENGESELLSCHAFT, priority 1985, dated 1987).
# Tested on: Ehrlich-Ascites-Tumorzellen
# Assay: Inhibition of proliferation of Ehrlich ascites tumour cells in vitro
# Type: cell-based
# Conditions: read-out: Hemmung der Proliferation (%) von Ehrlich-Ascites-Tumorzellen in vitro, % Hemmung; for inhibition at 1 µM: Konzentration 1 µM; for inhibition at 2 µM: Konzentration 2 µM; for inhibition at 5 µM: Konzentration 5 µM; for inhibition at 10 µM: Konzentration 10 µM; for inhibition at 20 µM: Konzentration 20 µM; for inhibition at 100 µM: Konzentration 100 µM
# Text: Die Verbindungen der allgemeinen Formel I und Salze davon sind biologisch hochaktiv und besitzen insbesondere eine ausgeprägte Antitumorwirksamkeit. Diese wertvollen pharmakologischen Eigenschaften können in vitro und in vivo unter Verwendung von Standardmethoden nachgewiesen werden, beispielsweise indem die Hemmung der Proliferation von Ehrlich-Ascites-Tumorzellen in vitro unter Einwirkung von Glycero-3(2)-phospho-L-serinderivaten der allgemeinen Formel I bestimmt wird. • In diesem Test (Tabelle I) bewirken die erfindungsgemäßen Verbindungen, beispielsweise • 1-0-Hexadecyl-2-chlor-2-desoxy-glycero-3-phospho-L-serin (Verbindung Nr. 1) • 1-0-Hexadecyl-2-fluor-2-desoxy-glycero-3-phospho-L-serin (Verbindung Nr. 2) • 1-Chlor-1-desoxy-3-0-hexadecyl-glycero-2-phospho-L-serin (Verbindung Nr. 3) • 1-0-(2,2,2-Trifluorethy)-2-0-hexadecyl-glycero-3-phospho-L-serin (Verbindung Nr. 4), schon in sehr geringen Konzentrationen eine signifikante Hemmung des Zellwachstums von Ehrlich-Ascites-Tumorzellen.
Compound,inhibition at 1 µM [%],inhibition at 2 µM [%],inhibition at 5 µM [%],inhibition at 10 µM [%],inhibition at 20 µM [%],inhibition at 100 µM [%]
"CCCCCCCCCCCCCCCCCCOCC(COP(=O)([O-])OCC[N+](C)(C)C)OC (stereo not shown) [V, 1-O-Octadecyl-2-O-methyl-glycero-3-phosphocholin, reference compound]",0,0,4,23,62,100
"CCCCCCCCCCCCCCCCOCC(Cl)COP(=O)(O)OC[C@H](N)C(=O)O (stereo partly drawn) [Verbindung Nr. 1, 1-O-Hexadecyl-2-chlor-2-desoxy-glycero-3-phospho-L-serin]",16,10,30,55,80,95
"CCCCCCCCCCCCCCCCOCC(F)COP(=O)(O)OC[C@H](N)C(=O)O (stereo partly drawn) [Verbindung Nr. 2, 1-O-Hexadecyl-2-fluor-2-desoxy-glycero-3-phospho-L-serin]",10,13,18,51,82,95
"CCCCCCCCCCCCCCCCOCC(CCl)OP(=O)(O)OC[C@H](N)C(=O)O (stereo partly drawn) [Verbindung Nr. 3, 1-Chlor-1-desoxy-3-O-hexadecyl-glycero-2-phospho-L-serin]",15,17,38,68,81,93
"CCCCCCCCCCCCCCCCOC(COCC(F)(F)F)COP(=O)(O)OC[C@H](N)C(=O)O (stereo partly drawn) [Verbindung Nr. 4, 1-O-(2,2,2-Trifluorethyl)-2-O-hexadecyl-glycero-3-phospho-L-serin]",–,–,10,36,74,100
